# In patent US11492325B2, “Compounds as inhibitors of sodium channels” (Human BioMolecular Research Institute, priority 2016, dated 2022):
# Counter-ions that a name gives are not always drawn.
# Tests used:
# [1] = target: Nav1.5 sodium channel transfected into HEK293 cells (Homo sapiens, UniProt Q14524); assay: Patch clamp electrophysiology, peak (INaP) and late (INaL) sodium current in transfected cells
# Procedure: (§1) This provided data to investigate the physiology and action of target compounds on individual ion channels. The assay used standardized protocols for culturing and conducting conventional whole cell recording that have been previously developed for both current and voltage-clamp to characterize action potentials using transfected cells. Briefly, the Nav1.5 sodium channel was transfected into HEK293 cells. […] Briefly, cells were plated on 0.1% gelatin-coated 35-mm plastic Petri dishes. […] Data was reported as IC50 values±STD (Table 1).
# [2] = target: Nav1.5 sodium channel, peak current (INaP) (Homo sapiens, UniProt Q14524, form not given); assay: in vitro
# Procedure: as §1
# [3] = tested on: normal human induced pluripotent stem cell (hiPSC) cardiomyocyte; settings: normal hiPSC cardiomyocytes; for WT-Fold Prolongation: APD
# [4] = tested on: cardiomyocytes derived from hiPSCs from a LQTS3 patient; settings: LQT3 cardiomyocytes
# [5] = tested on: cardiomyocytes derived from hiPSCs from a LQTS3 patient; assay: cells; settings: Homo sapiens, Cardiomyocyte, read-out: LQT-IC50 (uM)-Shortening
# [6] = target: hERG potassium channel (IKr) (Homo sapiens, UniProt Q12809); assay: Automated patch clamp, hERG (IKr) expressed in CHO cells; settings: for IC50: hERG (IKr) IC50, CHO cells
# hERG potassium channel (IKr), sequence (Q12809 whole entry): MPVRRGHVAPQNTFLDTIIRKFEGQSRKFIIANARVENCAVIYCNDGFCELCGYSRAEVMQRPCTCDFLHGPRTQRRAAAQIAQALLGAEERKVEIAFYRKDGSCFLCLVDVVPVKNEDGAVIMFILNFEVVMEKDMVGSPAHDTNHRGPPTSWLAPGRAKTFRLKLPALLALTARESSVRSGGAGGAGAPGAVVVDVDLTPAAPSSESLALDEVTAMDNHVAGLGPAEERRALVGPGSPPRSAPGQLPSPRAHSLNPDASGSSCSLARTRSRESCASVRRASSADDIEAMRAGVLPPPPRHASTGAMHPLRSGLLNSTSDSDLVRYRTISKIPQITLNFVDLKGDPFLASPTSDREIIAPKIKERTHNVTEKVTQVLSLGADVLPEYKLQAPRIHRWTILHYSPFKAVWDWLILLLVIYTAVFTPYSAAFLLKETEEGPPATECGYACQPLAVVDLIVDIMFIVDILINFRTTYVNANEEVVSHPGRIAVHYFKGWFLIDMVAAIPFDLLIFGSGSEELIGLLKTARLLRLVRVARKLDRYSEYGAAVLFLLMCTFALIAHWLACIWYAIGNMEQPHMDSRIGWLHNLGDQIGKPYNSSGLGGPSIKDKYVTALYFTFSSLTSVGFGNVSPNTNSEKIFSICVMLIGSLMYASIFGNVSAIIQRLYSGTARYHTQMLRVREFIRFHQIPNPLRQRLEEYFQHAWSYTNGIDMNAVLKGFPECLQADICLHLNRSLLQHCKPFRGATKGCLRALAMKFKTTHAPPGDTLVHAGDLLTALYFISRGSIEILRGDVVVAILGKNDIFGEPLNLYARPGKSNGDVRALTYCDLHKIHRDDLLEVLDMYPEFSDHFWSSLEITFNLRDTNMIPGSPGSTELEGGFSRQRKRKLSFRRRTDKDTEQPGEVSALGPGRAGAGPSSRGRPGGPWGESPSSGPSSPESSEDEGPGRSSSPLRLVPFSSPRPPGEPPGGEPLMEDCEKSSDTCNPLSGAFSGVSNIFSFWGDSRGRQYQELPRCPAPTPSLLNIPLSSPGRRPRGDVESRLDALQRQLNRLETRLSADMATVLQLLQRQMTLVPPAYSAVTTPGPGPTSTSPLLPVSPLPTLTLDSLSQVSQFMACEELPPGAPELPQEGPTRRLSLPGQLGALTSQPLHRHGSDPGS
# [7] = ratio peak/late IC50, Example 2
Structure (SMILES),DNap/NaL ([1]; ratio peak IC50/late IC50),"DNap/NaL [1, 7]",IC50 ([2]; Peak Na+ (INaP) IC50) [µM],WT-Fold Prolongation [3],Cessation of Beating [3],WT-Prolongation Dose [3],LQT-Cessation Dose [4],LQT-Fold Shortening [4],IC50 [5] [µM],IC50 [6] [µM],IC50 ([6]; Example 2) [µM],DKr/NaL ([6]; ratio hERG IC50/late Na IC50),DNaP/Kr ([6]; ratio peak Na IC50/hERG IC50),"DKr/NaL ([6]; ratio, Example 2)","DNaP/Kr ([6]; ratio, Example 2)",WT-EAD Dose [3] [µM],other results
COCCNC(COc1cc(C(F)(F)F)cc(C(F)(F)F)c1)c1ccccc1.Cl (stereo not drawn) [Compound 80],44.2,44.2,45.1,None,None,None,133 µM,1.636,6.59,16.8,16.8,16.5,2.7,16.5,2.7,,
Cc1cccc(C)c1OCC(C)N (racemic) [racemic Mexiletine],,,183,,,,,,1.83,,54,,,,,,
"CNC(C)COc1c(C)cccc1C (stereo not drawn) [Compound 11, 1-(2,6-dimethylphenoxy)-N-methylpropan-2-amine]",3.4,,124,2.194,,,133 µM,1.112,1.48,44,,1.2,2.8,,,22,IC50 [1]: 36 µM
"Cc1cccc(C)c1OC[C@H](C)N [Compound 2b, (S)-(+)-Mexiletine Hydrochloride, reference compound]",,,129,,,,None,,0.8,84,,,,,,200,
"Cc1cccnc1OCC(C)N (stereo not drawn) [Compound 100, 1-(-3-Methyl-pyridin-2-yloxy)propan-2-amine]",,,252,None,None,None,22 µM,1.13,,,,,,,,,
"Cc1cccc(C)c1OC[C@@H](C)N [Compound 2a, (R)-(−)-Mexiletine Hydrochloride, reference compound]",,,128,,,,None,,0.96,54,,,,,,200,
Cc1cccnc1OCC(O)c1ccccc1 (stereo not drawn) [Compound 21],6.1,6.1,129,None,None,None,None,1.23,,100,> 100,4.7,1.3,>4.7,1.3,,
Cc1ccc(OCC(N)c2ccccc2)c(C)c1.Cl (stereo not drawn) [Compound 66],10.5,10.7,22.1,None,66 µM,None,66 µM,1.192,0.486,5.9,5.9,2.8,3.7,2.8,3.7,,
Cc1cc(C)cc(OCC(N)C2CC2)c1.Cl (stereo not drawn) [Compound 91],7.7,7.68,76.8,,,,,,,45.8,45.8,4.6,1.7,4.6,1.7,,IC50 [1]: 10 µM
"Cc1cccc(OCC(N)c2ccccc2)c1C (stereo not drawn) [Compound 35, 2-(2,3-dimethylphenoxy)-1-phenylethanamine]",,10.6,10.9,None,133 µM,None,66 µM,1.406,,,9.2,,,8.9,1.2,,IC50 [1]: 1.03 µM
Cc1cc(C)cc(OCC(N)C2CCCCC2)c1.Cl (stereo not drawn) [Compound 89],15.2,15.3,24.3,,,,,,,4.9,4.9,3.1,5.0,3.1,5.0,,
"CCCc1ccccc1OCC(N)c1ccccc1 (stereo not drawn) [Compound 23, 1-phenyl-2-(2-propylphenoxy)ethanamine]",,,,None,22 µM,None,22 µM,1.32,0.78,,,,,,,,
"Cc1cccc(C)c1OCC(N)c1ccc(C(F)(F)F)cc1 (stereo not drawn) [Compound 16, 2-(2,6-dimethylphenoxy)-1-(4-(trifluoromethyl)phenyl)ethanamine]",,,,None,66 µM,None,66 µM,1.480,1.38,,,,,,,,
CC(N)COc1cccc(C(F)(F)F)c1.Cl (stereo not drawn) [Compound 85],,,,None,200 µM,None,200 µM,1.661,31.3,,,,,,,,
COCCNC(COc1cc(C)cc(C)c1)C1CC1.Cl (stereo not drawn) [Compound 68],,,,1.686,200 µM,,200 µM,1.11,0.022,,,,,,,66,
"Cc1cccc(C)c1OCC(C)N (racemic) [Compound 1, Mexiletine, reference compound]",,,183,,,,None,,1.83,54,,,,,,200,
COCCNC(COc1ccccc1C)c1ccccc1.Cl (stereo not drawn) [Compound 90],11.8,11.8,,None,133 µM,None,133 µM,1.1,,,25.3,,,1.32,1.32,,"IC50 ([1]; read-out: Late Na+ (INaL) IC50, patch clamp, transfected cells): 2.83 µM; IC50 ([1]; read-out: Late Na+ (INaL) IC50, transfected cells, Example 2): 2.83 µM; IC50 ([1]; read-out: Peak Na+ (INaP) IC50, transfected cells, Example 2): 33.4 µM; IC50 [2]: 33.4 µM"
Cc1cccc(Cl)c1OC[C@@H](C)N [Compound 56],,,,3.925,None,,None,1.189,0.04,,,,,,,133,
"CCCCNC(COc1cccc(C)c1C)c1ccccc1 (stereo not drawn) [Compound 30, 2-(2,3-dimethylphenoxy)-N-butyl-1-phenylethanamine]",,,,None,133 µM,None,200 µM,1.423,20.2,,,,,,,,
